From patent US20130071854A1, “METHODS FOR THE IDENTIFICATION AND CHARACTERIZATION OF HDAC INTERACTING COMPOUNDS” (priority 2009, published 2013)
Like-named read-outs stand apart in the source and are kept apart here. One block for each compound: values may come before it.

Experiments:
[1] = test system: Sin3 complex; experiment: Chemoproteomic binding profiling, K562 cell extract, SAHA/ITF2357 probe matrix (Kd app); parameters: species or system human
[2] = molecular target: MiDAC complex (HDAC1/2, DNTTIP1, CDYL, MIDEAS) (Homo sapiens, UniProt Q13547+Q92769); experiment: as above; parameters: Kd^app MIDEAS; other: protein MIDEAS; MiDAC complex; Kd^app DNTTIP1; other: protein DNTTIP1
[3] = molecular target: Sin3 complex (Homo sapiens, UniProt Q13547+Q92769); experiment: as above
[4] = test system: SIN3A; conditions: K-562 cell lysate
[5] = molecular target: T1, ISOC2 (Homo sapiens, UniProt Q96AB3); experiment: Competition binding assay in cell lysate, affinity matrix, MS
T1 construct: endogenous in cells
T1 sequence (Q96AB3 whole entry): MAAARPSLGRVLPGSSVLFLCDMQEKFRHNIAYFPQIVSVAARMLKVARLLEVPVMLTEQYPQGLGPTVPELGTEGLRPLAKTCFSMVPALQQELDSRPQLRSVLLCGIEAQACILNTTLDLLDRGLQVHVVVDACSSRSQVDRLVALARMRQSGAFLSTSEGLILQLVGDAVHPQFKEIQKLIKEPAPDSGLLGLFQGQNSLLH

[6] = molecular target: T2, WDR5 (Homo sapiens, UniProt P61964); experiment: as above
T2 construct: endogenous in cells

[7] = test system: GATAD2A; experiment: Competition binding assay in cell lysate, affinity matrix, MS (Mi-2/NuRD interactor); conditions: K-562 cell lysate
[8] = molecular target: T3, NOSIP (Homo sapiens, UniProt Q9Y314); experiment: Competition binding assay in cell lysate, affinity matrix, MS
T3 construct: endogenous in cells
T3 sequence (Q9Y314 whole entry): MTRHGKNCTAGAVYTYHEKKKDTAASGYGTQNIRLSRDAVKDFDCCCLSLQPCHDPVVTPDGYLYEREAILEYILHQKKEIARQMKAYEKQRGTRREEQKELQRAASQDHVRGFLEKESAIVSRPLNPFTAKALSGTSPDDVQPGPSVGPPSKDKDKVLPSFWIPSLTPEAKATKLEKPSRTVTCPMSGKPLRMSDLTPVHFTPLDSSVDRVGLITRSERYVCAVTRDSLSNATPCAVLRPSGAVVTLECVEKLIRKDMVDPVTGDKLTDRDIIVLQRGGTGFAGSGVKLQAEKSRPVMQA

[9] = molecular target: TRERF1; format: binding, human; conditions: protein TRERF1; ELSA (ELM-SANT) domain proteins; read-out: Kd^app TRERF1
[10] = test system: SAP30; experiment: Competition binding assay in cell lysate, affinity matrix, MS (Sin3 interactor); parameters: species or system human; conditions: K-562 cell lysate
[11] = molecular target: T4, APOBEC3C (Homo sapiens, UniProt Q9NRW3); experiment: Competition binding assay in cell lysate, affinity matrix, MS
T4 construct: endogenous in cells
T4 sequence (Q9NRW3 whole entry): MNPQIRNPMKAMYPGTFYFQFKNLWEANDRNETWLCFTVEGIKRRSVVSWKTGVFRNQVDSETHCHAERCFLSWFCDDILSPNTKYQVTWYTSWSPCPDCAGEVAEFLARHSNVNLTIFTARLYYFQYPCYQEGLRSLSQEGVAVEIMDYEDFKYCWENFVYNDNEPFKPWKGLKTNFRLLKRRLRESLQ

[12] = protein SAP30, read-out: Kd^app SAP30
[13] = protein SIN3A, read-out: Kd^app SIN3A
[14] = protein SIN3B, read-out: Kd^app SIN3B

Compound: Nc1ccccc1NC(=O)CCCCCCC(=O)Nc1ccccc1 [BML-210]
Kd [1, 12]: > 85 µM
Kd [1, 13]: > 85 µM
Kd [1, 14]: > 85 µM

Kd ([2]; protein DNTTIP1, read-out: Kd^app DNTTIP1): 418 µM
Kd ([2]; protein MIDEAS, read-out: Kd^app MIDEAS): 476 µM
Kd [3, 12]: 125 µM
Kd [3, 13]: 185 µM
Kd [3, 14]: > 59.7 µM
Compound: CCCCOc1ccc(CC(=O)NO)cc1 [bufexamac]

Compound: O=C(CCCCCCC(=O)Nc1ccccc1)NO [SAHA, suberoylanilide hydroxamic acid]
IC50 [4]: 570 nM

Compound: Nc1ccccc1NC(=O)c1ccc(CNC(=O)OCc2cccnc2)cc1 [MS-275]
IC50 [5]: ≥ 300 µM
IC50 [6]: ≥ 300 µM
IC50 [7]: 300 µM
IC50 [8]: ≥ 300 µM
Kd [9]: > 300 µM
IC50 [10]: 300 µM
IC50 [11]: ≥ 300 µM
